For ten compounds, IC50 results are on record in US9266878B2, “Phosphatidylinositol 3-kinase inhibitors” (Gilead Calistoga LLC, priority 2012, dated 2016).

One experiment addresses PI3Kδ (Homo sapiens (Human), UniProt O00329). Kind of experiment: Enzymatic activity of PI3K isoforms, TR-FRET assay (PIP3 formation). The settings on record: bound given in nM. It is filed as biochemical. As to the method:
(§1) Enzymatic activity of the class I PI3K isoforms was measured using a time-resolved fluorescence resonance energy transfer (TR-FRET) assay that monitors formation of the product 3,4,5-inositol triphosphate molecule (PIP3), as it competes with fluorescently labeled PIP3 for binding to the GRP-1 pleckstrin homology domain protein. An increase in […] product results in a decrease in TR-FRET signal as the labeled fluorophore is displaced from the GRP-1 protein binding site.
(§2) Class I PI3K isoforms were expressed and purified as heterodimeric recombinant proteins. All assay reagents and buffers for the TR-FRET assay were purchased from Millipore. […] After an assay reaction time of 30 minutes at 25° C., reactions were terminated with a final concentration of 10 mM EDTA, 10 nM labeled-PIP3, and 35 nM Europium labeled GRP-1 detector protein before reading TR-FRET on an Envision plate reader (Ex: 340 nm; Em: 615/665 nm; 100 μs delay and 500 μs read window).
(§3) IC50 are reported in units of nM. These assays generally produced results within 3-fold of the reported mean.
For orientation: In TR-FRET formats the signal depends on donor and acceptor labels being close together.

The target in a further experiment is PI3Kα (Homo sapiens (Human), UniProt P42336). Described as above. In kind it is biochemical. The settings on record: bound given in uM. As to the method:
as §1, §2, §3

Molecules are shown by their SMILES.

Chain of PI3Kδ (O00329 whole entry, the tested form may be a part, canonical isoform): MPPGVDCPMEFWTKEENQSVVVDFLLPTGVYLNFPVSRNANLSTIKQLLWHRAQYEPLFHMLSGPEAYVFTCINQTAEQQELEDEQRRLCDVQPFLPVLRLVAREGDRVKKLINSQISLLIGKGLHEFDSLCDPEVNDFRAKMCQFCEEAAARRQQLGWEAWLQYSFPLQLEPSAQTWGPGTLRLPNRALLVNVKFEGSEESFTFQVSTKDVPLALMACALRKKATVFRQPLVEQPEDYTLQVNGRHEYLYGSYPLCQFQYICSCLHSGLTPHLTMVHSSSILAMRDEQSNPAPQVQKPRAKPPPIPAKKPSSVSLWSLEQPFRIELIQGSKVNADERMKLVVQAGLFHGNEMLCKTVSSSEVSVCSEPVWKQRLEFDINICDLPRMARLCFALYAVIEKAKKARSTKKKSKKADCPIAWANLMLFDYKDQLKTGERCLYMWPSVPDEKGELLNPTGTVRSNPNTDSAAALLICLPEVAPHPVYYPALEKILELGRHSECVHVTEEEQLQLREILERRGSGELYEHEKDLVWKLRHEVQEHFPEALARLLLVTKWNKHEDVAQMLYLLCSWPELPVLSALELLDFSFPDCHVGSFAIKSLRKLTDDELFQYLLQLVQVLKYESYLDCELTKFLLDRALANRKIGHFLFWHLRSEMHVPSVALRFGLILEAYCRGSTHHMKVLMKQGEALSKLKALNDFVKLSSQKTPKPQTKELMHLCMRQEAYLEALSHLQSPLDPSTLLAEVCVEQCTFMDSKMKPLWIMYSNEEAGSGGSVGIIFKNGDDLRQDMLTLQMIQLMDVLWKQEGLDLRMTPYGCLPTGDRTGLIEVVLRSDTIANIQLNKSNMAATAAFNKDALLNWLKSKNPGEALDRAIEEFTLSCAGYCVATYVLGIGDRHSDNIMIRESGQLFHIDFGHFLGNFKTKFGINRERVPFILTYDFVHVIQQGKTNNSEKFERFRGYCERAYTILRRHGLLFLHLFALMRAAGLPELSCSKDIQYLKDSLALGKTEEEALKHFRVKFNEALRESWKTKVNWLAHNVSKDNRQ
Chain of PI3Kδ (P27986 whole entry partner, the tested form may be a part, canonical isoform): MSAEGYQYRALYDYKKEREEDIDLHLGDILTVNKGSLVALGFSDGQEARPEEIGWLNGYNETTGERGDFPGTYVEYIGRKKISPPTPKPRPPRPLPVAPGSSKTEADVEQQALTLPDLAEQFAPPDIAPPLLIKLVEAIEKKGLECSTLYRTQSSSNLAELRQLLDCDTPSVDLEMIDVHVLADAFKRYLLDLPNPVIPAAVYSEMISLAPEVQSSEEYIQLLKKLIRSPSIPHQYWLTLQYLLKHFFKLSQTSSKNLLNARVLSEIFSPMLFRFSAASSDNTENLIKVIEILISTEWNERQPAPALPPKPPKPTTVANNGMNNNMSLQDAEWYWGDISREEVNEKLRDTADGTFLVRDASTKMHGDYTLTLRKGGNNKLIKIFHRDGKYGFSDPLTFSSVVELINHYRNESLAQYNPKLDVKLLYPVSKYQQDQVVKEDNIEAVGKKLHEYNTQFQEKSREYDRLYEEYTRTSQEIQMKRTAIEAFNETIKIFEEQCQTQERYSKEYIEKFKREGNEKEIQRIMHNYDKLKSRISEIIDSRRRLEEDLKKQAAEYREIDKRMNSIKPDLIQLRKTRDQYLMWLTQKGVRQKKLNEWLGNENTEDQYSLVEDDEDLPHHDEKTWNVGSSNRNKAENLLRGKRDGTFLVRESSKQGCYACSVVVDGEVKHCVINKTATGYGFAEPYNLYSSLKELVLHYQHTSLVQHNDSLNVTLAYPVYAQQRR
Chain of PI3Kα (P42336 whole entry): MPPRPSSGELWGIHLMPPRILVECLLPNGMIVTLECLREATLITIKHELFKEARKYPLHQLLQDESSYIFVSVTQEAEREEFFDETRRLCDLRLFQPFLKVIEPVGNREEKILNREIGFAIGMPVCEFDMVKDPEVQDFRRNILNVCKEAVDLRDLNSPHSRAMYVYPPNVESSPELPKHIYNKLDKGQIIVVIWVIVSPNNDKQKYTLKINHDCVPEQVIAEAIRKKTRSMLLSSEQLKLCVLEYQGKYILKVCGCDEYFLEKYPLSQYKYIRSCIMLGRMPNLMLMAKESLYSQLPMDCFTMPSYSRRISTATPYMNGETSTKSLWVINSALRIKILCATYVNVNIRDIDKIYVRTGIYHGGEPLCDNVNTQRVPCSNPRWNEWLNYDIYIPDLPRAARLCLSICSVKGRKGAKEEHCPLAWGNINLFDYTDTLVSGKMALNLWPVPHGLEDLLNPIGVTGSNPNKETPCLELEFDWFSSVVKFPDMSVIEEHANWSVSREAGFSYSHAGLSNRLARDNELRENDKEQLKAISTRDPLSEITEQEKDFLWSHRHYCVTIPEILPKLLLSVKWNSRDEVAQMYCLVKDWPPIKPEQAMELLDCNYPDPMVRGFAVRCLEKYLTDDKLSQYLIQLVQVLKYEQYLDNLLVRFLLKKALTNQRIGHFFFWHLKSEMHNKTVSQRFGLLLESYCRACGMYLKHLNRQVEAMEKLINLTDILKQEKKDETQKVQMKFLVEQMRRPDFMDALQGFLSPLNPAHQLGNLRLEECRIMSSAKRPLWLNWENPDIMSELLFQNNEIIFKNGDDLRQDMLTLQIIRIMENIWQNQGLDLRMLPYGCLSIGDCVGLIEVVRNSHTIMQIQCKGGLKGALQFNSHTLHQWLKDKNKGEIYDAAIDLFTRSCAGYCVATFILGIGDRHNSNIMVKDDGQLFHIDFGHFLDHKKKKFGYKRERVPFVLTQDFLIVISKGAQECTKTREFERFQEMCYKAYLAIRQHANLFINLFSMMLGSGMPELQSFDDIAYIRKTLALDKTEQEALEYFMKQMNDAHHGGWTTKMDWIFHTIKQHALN
Chain of PI3Kα (P27986 whole entry partner): as the sequence (P27986 whole entry partner, the tested form may be a part, canonical isoform) above

`Nc1ncnc(N2CCC[C@H]2c2nc3cccc(Cl)c3c(=O)n2-c2ccccc2)c1C#Cc1ccccn1` [Compound 37a, (S)-2-(1-(6-amino-5-(pyridin-2-ylethynyl)pyrimidin-4-yl)pyrrolidin-2-yl)-5-chloro-3-phenylquinazolin-4(3H)-one]: the results for the half-maximal inhibitory concentration (IC50) against PI3Kδ and at PI3Kα were under 100 nM and over 1 µM, respectively.

As to `Cc1ccc(F)c2nc([C@H](C)Nc3ncnc(N)c3C#Cc3ccc(F)cn3)n(-c3ccccc3)c(=O)c12` [Compound 62a, (S)-2-(1-((6-amino-5-((5-fluoropyridin-2-yl)ethynyl)pyrimidin-4-yl)amino)ethyl)-8-fluoro-5-methyl-3-phenylquinazolin-4(3H)-one], the half-maximal inhibitory concentration (IC50) against PI3Kδ was under 100 nM; against PI3Kα it was over 1 µM. On to `CC(=O)c1cccc(C#Cc2c(N)ncnc2N[C@@H](C)c2nc3cccc(Cl)c3c(=O)n2-c2ccccc2)n1` [Compound 153a, (S)-2-(1-((5-((6-acetylpyridin-2-yl)ethynyl)-6-aminopyrimidin-4-yl)amino)ethyl)-5-chloro-3-phenylquinazolin-4(3H)-one], for which the IC50 is under 100 nM against PI3Kδ and over 1 µM against PI3Kα. In the case of `C[C@H](Nc1ncnc(N)c1C#Cc1cnccn1)c1nc2cccc(C(F)F)c2c(=O)n1-c1ccccc1` [Compound 76a, (S)-2-(1-((6-amino-5-(pyrazin-2-ylethynyl)pyrimidin-4-yl)amino)ethyl)-5-(difluoromethyl)-3-phenylquinazolin-4(3H)-one], the IC50 on PI3Kδ is under 100 nM; on PI3Kα, over 1 µM.

As for `Cc1cccc2nc([C@H](C)Nc3ncnc(N)c3C#Cc3ccc(F)cn3)n(-c3ccccc3)c(=O)c12` [Compound 54a, (S)-2-(1-((6-amino-5-((5-fluoropyridin-2-yl)ethynyl)pyrimidin-4-yl)amino)ethyl)-5-methyl-3-phenylquinazolin-4(3H)-one], the figures for the IC50 against PI3Kδ and against PI3Kα were under 100 nM and over 1 µM, respectively. Regarding `C[C@H](Nc1ncnc(N)c1C#Cc1cc(C(F)(F)F)ccn1)c1nc2cccc(Cl)c2c(=O)n1-c1ccccc1` [Compound 148a, (S)-2-(1-((6-amino-5-((4-(trifluoromethyl)pyridin-2-yl)ethynyl)pyrimidin-4-yl)amino)ethyl)-5-chloro-3-phenylquinazolin-4(3H)-one], the IC50 against PI3Kδ is under 100 nM; against PI3Kα, over 1 µM. For `C[C@H](Nc1ncnc(N)c1C#Cc1ccc(N)cn1)c1nc2cccc(Cl)c2c(=O)n1-c1cc(F)cc(F)c1` [Compound 34a, (S)-2-(1-(6-amino-5-((5-aminopyridin-2-yl)ethynyl)pyrimidin-4-ylamino)ethyl)-5-chloro-3-(3,5-difluorophenyl)quinazolin-4(3H)-one] the same measures were under 100 nM and over 1 µM. Turning to `CCNS(=O)(=O)c1cccc(-n2c([C@H](C)Nc3ncnc(N)c3C#Cc3ccccn3)nc3cccc(Cl)c3c2=O)c1` [Compound 39a, (S)-3-(2-(1-(6-amino-5-(pyridin-2-ylethynyl)pyrimidin-4-ylamino)ethyl)-5-chloro-4-oxoquinazolin-3(4H)-yl)-N-ethylbenzenesulfonamide], the IC50 on PI3Kδ is under 100 nM. Still for that read-out and setting: then `C[C@H](Nc1ncnc(N)c1C#Cc1cnc(N)nc1)c1nc2cccc(Cl)c2c(=O)n1-c1cc(F)cc(F)c1` [Compound 32a, (S)-2-(1-(6-amino-5-((2-aminopyrimidin-5-yl)ethynyl)pyrimidin-4-ylamino)ethyl)-5-chloro-3-(3,5-difluorophenyl)quinazolin-4(3H)-one], with under 100 nM; and `C[C@H](Nc1ncnc(N)c1C#Cc1ccccn1)c1nc2cccc(Cl)c2c(=O)n1-c1cccc(S(N)(=O)=O)c1` [Compound 40a, (S)-3-(2-(1-(6-amino-5-(pyridin-2-ylethynyl)pyrimidin-4-ylamino)ethyl)-5-chloro-4-oxoquinazolin-3(4H)-yl)benzenesulfonamide], with under 100 nM.

As usually defined, the IC50 is the concentration that gives 50% inhibition. Higher therefore signals lower potency.
